Data as given in patent publication US7452869B2, “NIP3 family of proteins” (University of Manitoba, priority 2000, dated 2008).
Several values for one entry are separate records, joined by “and”; a condition that tells them apart may be missing. Equal values may be shown once.

What was measured:
293T cells = test: cytochrome c release by indirect immunofluorescence, 293T; format: cell-based
Protocol: (§1) Mitochondria were isolated from CaP04-transfected 293T cells using 70 strokes (tight pestle) in a 1-ml Dounce homogenizer (Wheaton) in […] of CFS buffer as previously described (Thornberry, N. A., et al., 1998). Mitochondria were resuspended in H buffer (Thornberry, N. A., et al., 1998). Aliquots of […] of protein were analyzed on Laemmli SDS-15% PAGE gels and immunoblotted with anticytochrome c monoclonal antibody. Equal loading was ensured by probing the same blot with monoclonal antiactin. Results were visualized with enhanced chemiluminescence. Cytochrome c release was also determined via indirect immunofluorescence of transfected MCF-7 and 293T cells. Briefly, cells grown on coverslips were costained with Cy3-conjugated mouse anti-cytochrome c monoclonal antibody and an appropriate tag (HA for BNIP3 and FLAG for tBID), which was visualized with FITC-conjugated goat anti-rabbit IgG. Cells were also stained with Hoechst dye to determine apoptotic nuclear morphology. No fewer than 200 cells were scored for each sample. Fluorescence was visualized and captured using a Zeiss axiophot microscope equipped with a cooled charge-coupled device camera.

ventricular myocytes = test: cell viability of ventricular myocytes, calcein acetoxymethyl ester / ethidium homodimer-1; format: cell-based; details: adenovirus encoding full-length BNIP3 versus control virus, P<0.05
Protocol: Ventricular myocytes were isolated from 1- to 2-day-old Sprague-Dawley rats (University of Manitoba, Winnipeg, Canada) and submitted to primary culture as reported (Kirshenbaum and Schneider, 1995). Myocytes were subjected to hypoxia for 24 hours in an air-tight chamber continually gassed with 95% N2-5% CO2, as previously reported (Moissac et al., 2000; Long et al., 1997; Tanaka et al., 1994). Adult rat hearts (n=3) were excised from adult rats (250 to 300 g) and subjected to global hypoxia for 1 hour on a modified Langendorff perfusion system with buffer continually gassed with 95% N2-5% CO2, as previously reported (Kirshenbaum, 1993). Heart failure was induced in rats by surgical ligation of the left anterior descending coronary artery, as previously reported (Dixon et al., 1992). Non-failing sham control hearts and those with heart failure were excised from animals 8 weeks after myocardial infarction. Hearts (n=3) were dissected to remove the infarcted scar tissue, and the left ventricular free wall was homogenized and analyzed by Western blot for BNIP3 expression. Animals were handled according to guidelines established by the University of Manitoba and Canadian Council on Animal Care.
The cDNAs for BNIP3 full-length (BNIP3) and carboxyl terminal transmembrane domain deletion mutant (BNIP3ΔTM) have been described previously (Vande et al., 2000). Recombinant adenoviruses encoding the full-length BNIP3 or transmembrane deletion mutant are designated AdBNIP3 or AdBNIP3ΔTM, respectively, and generated as reported previously (Kirshenbaum et al., 1993).
Cell viability was determined using the vital dyes 2 μmol/L calcein acetoxymethyl ester (green) to determine the number of living cells and 2 μmol/L ethidium homodimer-1 (red) (Molecular Probes) to identify the number of dead cells (Kirshenbaum and Schneider, 1995). The number of green cells versus red cells was used to determine changes in cell viability (Moissac et al., 2000). Cells were analyzed from at least n=3 independent myocyte isolations counting ≧200 cells for each condition tested. Data are expressed as mean±SE percent reduction from control.

MEFs = test: b-galactosidase cell death assay in wild-type, Apaf-1, caspase 9 or caspase 3 deficient MEFs; format: cell-based, mouse; details: wild-type and all mutant MEF lines
Protocol: Various doses of the peptide caspase inhibitor Ac-zVAD-fmk (Enzyme System Products, Dublin, Calif.) were applied to 1×10^5 293T cells cotransfected, using LipofectAmine reagent (Gibco-BRL), with 0.01 mg of the reporter plasmid pcDNA3bgal plus the indicated expression plasmids to a final amount of 0.75 mg of DNA (see FIG. 2), as adjusted with empty vector. Cells were fixed, stained, and evaluated 27 hours posttransfection as described previously (Miura, M. et al., 1993). Similar strategies were used to evaluate the expression of pcDNA1-p35 as a caspase inhibitor (1.95 mg of DNA total) and to determine the killing efficiency of BNIP3 expressed in MEF cells (1.2 mg of DNA with 0.3 mg of b-galactosidase).
Results are expressed as the mean […] SE from three independent experiments. […] N, N-Dimethyl formamide (DMF) was used to dilute the adriamycin.

caspase 3-like proteases = test: caspase activation, colorigenic cleavage of Ac-DEVD-pNA by lysates of transfected 293T cells; format: biochemical; details: 293T lysates harvested 1 to 36 hours posttransfection, versus untransfected controls
Protocol: Lysates were collected from 293T cells, transiently transfected via the CaP04 method (Ray, R., et al., 1999), at the indicated times. Aliquots of these lysates were run under Laemmli sodium dodecyl sulfate-polyacrylamide gel electrophoresis (SDS-PAGE) conditions and immunoblotted with mouse monoclonal anti-PARP. Results were visualized with an enhanced chemiluminescence system (Amersham Pharmacia Biotech, Amersham, U. K.). Transfected 293T cells were also assayed for caspase cleavage via colorigenic cleavage of the peptide Ac-DEVD-pNA (Biomol, Plymouth Meeting, Pa.), according to the conditions outlined by Quignon et al. (Scaffidi, C., et al., 1998), using 100 mM peptide. Where appropriate, samples were preincubated with 500 nM Ac-DEVD-fmk for 30 minutes at room temperature. Data were acquired on a Multiskan MCC/340 (Titertek) plate reader at 405 nm.

PT pore = test: mitochondrial Dcm (DiOC6), ROS production (HE) and PI staining by flow cytometry in BNIP3-transfected 293T cells; format: cell-based; details: 293T cells, 8 hours after transfection
Protocol: Changes in mitochondrial function were determined by incubating 10 6 293T cells, transiently transfected via the CaP04 method, with either 1 mM JC-1, 40 nM DiOC6, or 2 mM dihydroethidium (HE) (all from Molecular Probes, Inc.) for 30 minutes at 37° C. in Hanks' balanced salt solution (Gibco-BRL). Cells were scored using a FACScalibur flow cytometer (Becton-Dickinson, San Jose, Calif.), and data were analyzed on Celiquest software, version 3.1 (Becton-Dickinson). Controls were performed in the presence or absence of […] mClCCP (Sigma) or an excess of 30% H2 02. For inhibition experiments, cyclosporin A (Sigma) or bongkrekic acid (a gift from J. A. Duine, Delft University, Delft, The Netherlands) was added 2 hours prior to transfection. All cells were harvested 8 hours after transfection and stained with 40 nM DiOC6, 2 mM HE, or 1 mg of propidium iodide (PI) (Sigma) per ml. In all cases, samples were gated to exclude cellular debris.

[1] = tested on: primary hippocampal neurons; test: primary hippocampal neurons transfected with BNIP3 plasmids, DNA condensation and survival; format: cell-based, rat
Protocol: Transfection of cells was performed on day four in culture with LipofectAMINE 2000 […] according to manufacturer's protocol. Cells were transfected with a pcDNA3-BNIP3 plasmid encoding the full length of BNIP3 and a pcDNA3-BNIP3-163 plasmid that encodes a truncated form (the first 163 amino acids) of BNIP3 that lacks the functional transmembrane domain. Cells were used after 9 days in culture for excitotoxicity experiments. Neuronal cell death was assessed using trypan blue exclusion, morphological changes, and Hoescht 33342 staining. Morphological characteristics were examined on a Nikon Eclipse TE200 microscope and fluorescence was examined on a Zeiss Axioskop 2.
(§2) In vitro cell death was estimated using trypan blue exclusion. Cells were incubated in 0.4% trypan blue solution for 30 minutes and then counted on a bright-field microscope. Nonviable cells were distinguished by their dark blue staining. To examine nuclear morphology, nuclear DNA was stained with Hoescht 33342. DNA fragmentation was detected by TUNEL using an in situ cell death detection kit with fluorescein. Statistical analyses were by ANOVA with Tukey's post-test.

MCF-7 cells = test: cytochrome c release by indirect immunofluorescence, MCF-7; format: cell-based
Protocol: as §1

[2] = tested on: primary hippocampal neurons; test: excitotoxic cell death of primary hippocampal neurons, trypan blue exclusion; format: cell-based, rat
Protocol: (§3) Primary hippocampal neurons were prepared from 18-day-old embryonic Sprague-Dawley rats as described previously by Haughey, N. J. et al. (2001). Briefly, hippocampal tissue was dissociated by gentle tituration in a calcium-free Hank's balanced salt solution and was centrifuged at 1000×g. Cells were resuspended in Dulbecco's modified Eagle's medium (DMEM)/F12 nutrient mixture containing 10% heat-inactivated fetal bovine serum and 1% antibiotic solution (104 IU of penicillin G/ml, 10 mg streptomycin/ml and 25 μg amphotericin B/ml) in 0.9% NaCl (Sigma, St Louis, Mo., USA). Hippocampal neurons were plated at a density of 2×10^5 cells/ml on 12-mm diameter poly d-lysine-coated glass coverslips. Three hours after plating, the media was replaced with serum-free Neurobasal media containing 1% B-27 supplement (Gibco, Rockville, Md., USA).
To determine the extent to which NMDA-type glutamate receptors were involved in BNIP3 expression and excitotoxic cell death, the inventors used the agonist NMDA (100 μM) in the absence or presence of the NMDA receptor antagonist MK-801 (10 μM). To determine the extent to which caspase activation contributes to BNIP3-mediated cell death, hippocampal cells were incubated in the absence or presence of the broad spectrum cell permeable caspase inhibitors z-VAD-FMK (50 μM) and BOC-D-FMK (50 μM); these inhibitors were applied 30 minutes prior to application of glutamate or NMDA. […]
as §2

BNIP3 [3] = test: BNIP3 immunohistochemistry in primary hippocampal neurons after glutamate; format: cell-based, rat; details: 100 μM glutamate
Protocol: as §3
For immunohistochemistry and in situ hybridization, rats were perfused transcardially with 0.9% saline and then 4% paraformaldehyde. Brains were carefully removed and post-fixed overnight in PBS containing 4% paraformaldehyde. After rinsing in PBS, the brains were placed in PBS containing 0.5 M sucrose (pH 7.3) at 4° C. until buoyancy was lost. […] Brain sections were hybridized with the probe, incubated with an alkaline phosphatase-conjugated anti-digoxigenin antibody, and labeled cells were detected with BCIP/NBT.

BNIP3 [4] = test: intrastriatal injection in rats, BNIP3 immunohistochemistry and in situ hybridization; format: in vivo; details: rat
Protocol: Male Sprague-Dawley rats, with body weights ranging between 200 to 250 g, were obtained from the University of Manitoba Central Animal Care breeding facility. All procedures followed Canadian Council on Animal Care guidelines and were approved by the Animal Care Committee at the University of Manitoba. Animals were anesthetized with 74 mg/kg sodium pentobarbital (i.p.) and placed in a stereotaxic surgery frame. Unilateral intrastriatal injections were performed using the following coordinates (in mm); AP […], ML 3.0 and DV 4.5 (Paxinos, G. et al. (1986)). Drugs were administered over a 5 minute period in a volume of 1 μl using a 10 μl syringe fitted with a 30-gauge needle. Following injection, the needle was left in place for 5 minutes before being slowly withdrawn to allow diffusion of the drug away from the injection site. Kainic acid, dissolved in 50 mM Tris-HCl with the pH adjusted to 7.4 with NaOH, was administered at a dose of 2.5 nmol. Control rats received unilateral injections of 1 μl 50 mM Tris-HCl, pH 7.4. […]
For immunohistochemistry and in situ hybridization, rats were perfused transcardially with 0.9% saline and then 4% paraformaldehyde. […] Brain sections were hybridized with the probe, incubated with an alkaline phosphatase-conjugated anti-digoxigenin antibody, and labeled cells were detected with BCIP/NBT.

BNIP3: full-length BNIP3, expressed from plasmid or adenovirus; mutation None
cytochrome c release (in words) (293T cells): only very low levels
increase in myocyte death (ventricular myocytes): 8.3 fold
cell death induced by transient transfection (MEFs): 50%
increase in Ac-DEVD-pNA substrate cleavage after transfection (caspase 3-like proteases): only marginal increases
DiOC6-low and HE-high cells (PT pore): 55%
neurons surviving glutamate toxicity ([1]; glutamate 100 μM at day 9 in culture, 5 days after transfection): 32%
BNIP3-positive neurons showing DNA condensation / DNA damage ([1]; transiently transfected hippocampal neurons): 81% and 85%
cytochrome c release (in words) (MCF-7 cells): no significant cytochrome c release

N[C@@H](CCC(=O)O)C(=O)O [glutamate]
hippocampal neurons killed ([2]; 10 μM glutamate for 6 hours, then Neurobasal media 24 hours): 40%
cells stained positively for trypan blue ([2]; 100 μM glutamate for 6 hours, then Neurobasal media 24 hours): 70%
neuronal cell death (trypan blue exclusion) ([2]; 6 hours after application, p<0.01): significantly increased
cells stained positive for BNIP3 (BNIP3 [3]): more than 50%

C=C(C)[C@H]1CN[C@H](C(=O)O)[C@H]1CC(=O)O [kainic acid]
BNIP3 expression in striatum (immunohistochemistry) (BNIP3 [4]; intrastriatal 1 μl, 2.5 nmol kainic acid, 5 nmol CNQX alone or mixed with kainic acid, 48 hours): observed only in those rats that received kainic acid alone
levels of BNIP3 mRNA (in situ hybridization) (BNIP3 [4]; intrastriatal kainic acid): increased
